Like-named read-outs stand apart in the source and are kept apart here.
Tests used:
PSMA = test system: PSMA; parameters: method as in PMID 33822606; settings: PSMA ligand; cited from earlier work
22Rv1 [1] = assay: Cytotoxicity (CC50) on 22Rv1 cells; format: cell-based; settings: Homo sapiens, 22Rv1, read-out: CC50, 22Rv1
Protocol: The in vitro efficacy study of the PSMA-Abi conjugate included an assessment of its cytotoxic potential towards prostate cancer cell cultures (Table 1). […] Thus, we observed an increase in the efficacy of the conjugate towards the PSMA-expressing line. Additionally, an evaluation in a non-tumor model was performed. The toxicity of both compounds was evaluated on human adult dermal fibroblasts (HDFa); both of the agents in the tested concentrations (0.4–100 µM) were non-toxic for human fibroblasts.
22Rv1 and PC-3 cells were received from the MISIS collection of cell lines (less than ten passages from ATCC stock). All cells were cultured in humidified 37 °C incubators with 5% CO2. All cell lines were tested for the absence of mycoplasma. 22Rv1, androgen-responsive PSMA-positive human prostate carcinoma cells, were cultured in RPMI 1640 media (Gibco) with 10% FBS (Gibco), 1× GlutaMax (Gibco), and 1× Penicillin-Streptomycin (10,000 U/mL, Gibco). PC-3, PSMA-negative human prostate cancer cells, were cultured in DMEM/F12 media (Gibco) with 10% FBS (Gibco), 1× GlutaMax (Gibco), and 1× Penicillin-Streptomycin (10,000 U/mL, Gibco).

[2] = Cytotoxicity on human adult dermal fibroblasts, MTT-test; format: cell-based; settings: human, human adult dermal fibroblasts (HDFa); HDFa, 72 h, MTT
Protocol: Human adult dermal fibroblasts (HDFa). (ATCC) were propagated in DMEM medium (Paneco) supplemented with 10% fetal calf serum (Gibco) and 1% pemicillin/streptomycin in a 5% CO2 atmosphere at 37 °C. Cytotoxicity of PSMA-Abi and AbiAc in fibroblasts were studied using MTT-test. The cells in the exponential growth phase were trypsinized, counted, and seeded at a density of 5000 cells/well in 96-well plate. Cells were incubated with both tested agents at the designated concentrations (0.4–100 μM) for 72 h; then, each well was treated with 20 μL MTT solution in PBS (5 mg/mL) and cells were incubated at least for 3 h, and formazan was dissolved in DMSO. The absorbance was measured at […] and 620 nm using Thermofischer Scientific Multiscan FC. The values for each point were calculated from 6 wells.

22Rv1 [3] = assay: Single cell ROS measurement with Pt-nanoelectrodes, 22Rv1; format: cell-based, human; settings: 22Rv1, 1 h incubation, IC50 concentration
Protocol: (§1) Commercially available, disk-shaped carbon nanoelectrodes isolated in quartz (ICAPPIC Limited, London, UK) with diameters of 60–100 nm were used to prepare Pt nanoelectrodes for the amperometric detection of intracellular ROS level. Preparation of Pt-nanoelectrodes has been described in detail previously.
(§2) Briefly, a disk-shaped carbon nanoelectrode was etched in a 0.1 M NaOH, 10 mM KCl solution for 20–40 cycles of 10 seconds (from 0 to +2200 mV) to create nanocavities. Electrochemical deposition of platinum in nanocavities was achieved by cycling from 0 to −800 mV with a scan rate of 200 mV s^−1 for 8 to 10 cycles in 2 mM H2PtCl6 solution in 0.1 M hydrochloric acid. […]
(§3) The setup for amperometric measurements included a PC that was connected to a system consisting of an ADC–DAC converter Axon Digidata 1550B (Axon Instruments, Burlingame, CA, USA) and patch-clamp amplifier MultiClamp 700B (Axon Instruments, USA). […] The potential difference between the Pt-nanoelectrode and the reference electrode was recorded with the pClamp 11 software suite (Molecular Devices, Silicon Valley, CA, USA) and processed with Origin 2018 software.
(§4) PC-3 (2.0 × 10^5)/22Rv1 (3.5 × 10^5) cells were seeded in 35 mm Petri dishes, incubated under the conditions described above, and then treated for 24 h. […] Untreated cells were used as a control, which was evaluated at the beginning and at the end of the experiment. […]

PC-3 [4] = assay: Single cell ROS measurement with Pt-nanoelectrodes, PC-3; format: cell-based, human; settings: PC-3, 1 h incubation, IC50 concentration
Protocol: as §1, §2, §3, §4

22Rv1 cells = assay: Cell cycle analysis; format: cell-based, human
Protocol: Cell cycle was analyzed in 22Rv1 cells fixed in 70% ethanol with Muse® cell cycle kit. The fixation lasted overnight at −20 °C. Then, cells were collected by centrifugation at 4000 rpm for 10 min and washed with PBS. The cells were resuspended with Muse® Cell Cycle reagent and incubated for 30 min at room temperature in the dark; then, they were counted.

[5] = test system: 22Rv1 prostate cancer subcutaneous xenograft; assay: 22Rv1 human tumor xenograft mouse model; format: in vivo, Balb/c nude mice; settings: 22Rv1 xenografts
Protocol: Male, 6–8 week old Balb/c nude mice with body weight range of 20–22 g were purchased from N.N.Blokhin Cancer Research Center. Animals were kept in plastic cages equipped with lids with feeding recesses, air filters, and feed dividers at 2–3 mice per cage.
Mice were injected subcutaneously in the right and left flanks with 1 × 10^7 22Rv1 cells in RPMI-1640 medium 0.2 mL supplemented with 0.2 mL Corning Matrigel® matrix (Corning, NY, USA) in a total volume of 400 μL. When the average size of the tumors reached ~100 mm^3, mice were randomly divided into three groups, with five mice per group, including a vehicle group (1% starch paste) and two treatment groups: PSMA-Abi 500 mg/kg/day and AbiAc 200 mg/kg/day for 14 days. The drugs were administered orally, and all compounds were formulated with 1% starch paste. Following the treatment, the primary tumor size was measured twice weekly with a micro-caliper, and the tumor volume was calculated using the formula: Volume = π/6 × length × width × height. Treatment outcome was based on percentage of tumor growth inhibition (%TGI), defined as the percent difference between the median tumor volumes (MTVs) of mice in the treated and control groups. Percent TGI was calculated using the following formula: %TGI = [1 − (MTV treatment group/MTV control)] 100%. All data are presented as means ± SD. Statistical analyses of in vivo research were performed using SPSS Statistics V. 22.0, comparing continuous variables by non-parametrical Mann–Whitney U. * p ≤ 0.05 was considered as significant in comparison with the control.

PC-3 [6] = test system: PC-3; parameters: method as in PMID 29310026; settings: PC-3 cell line; cited from earlier work
[7] = mouse, in vivo; cited from earlier work
PSA level = test system: PSA level; parameters: method as in PMID 22995653; settings: cited from earlier work
[8] = oral x14, PSMA-Abi 500, AbiAc 200 mg/kg/day

Q: What does the source list for `CC(=O)O[C@H]1CC[C@@]2(C)C(=CC[C@@H]3[C@@H]2CC[C@]2(C)C(c4cccnc4)=CC[C@@H]32)C1` [AbiAc, abiraterone acetate, reference compound]?
A: CC50 (22Rv1 [1]): 22.7 ± 3.3 µM; CC50 at 72 h [2]: > 100 µM; ROS (hydrogen peroxide) level in single cells (22Rv1 [3]): significantly increased compared to the control; ROS (hydrogen peroxide) level in single cells (PC-3 [4]): significantly increased compared to the control; S cells (22Rv1 cells; 22Rv1): unaffected; level of G0/G1 cells (22Rv1 cells; 22Rv1, with increasing concentration): increased; percentage of 22Rv1 cells in the G2/M phase (22Rv1 cells; with increasing concentration, compared to control cells): decreased; TGImax (tumor growth inhibition) ([5]; oral x14, PSMA-Abi 500 mg/kg/day, AbiAc 200 mg/kg/day, after the end of treatment): 78%; TGI, day 15 after start of the treatment [5, 8]: 78%; TGI, day 18 after start of the treatment [5, 8]: 72%; TGI, day 22 after start of the treatment [5, 8]: 69%; Tumor volume (M+SE), day 15 [5, 8]: 547±64 mm3; Tumor volume (M+SE), day 18 [5, 8]: 811±72 mm3; Tumor volume (M+SE), day 22 [5, 8]: 997±110 mm3; Tumor volume (M+SE), day 0 ([5]; start of treatment): 91±20 mm3; CC50 (PC-3 [6]): 5.9 ± 0.8 µM; LD50 [7]: 800 mg/kg

Q: With `[N-]=[N+]=NCCCNC(=O)[C@H](Cc1ccc(O)cc1)NC(=O)[C@H](Cc1ccccc1)NC(=O)CCC(=O)NCCCCCC(=O)N(CCCC[C@H](NC(=O)N[C@@H](CCC(=O)O)C(=O)O)C(=O)O)Cc1cccc(Cl)c1` [PSMA ligand 1] as the compound, how does the IC50 (PSMA) read?
A: 0.009 ± 0.003 µM

Q: Which “patients with PSA level decreased by more than 90%” value (PSA level; chemotherapy-naïve patients) does the source give for `C[C@]12CC[C@H](O)CC1=CC[C@@H]1[C@@H]2CC[C@]2(C)C(c3cccnc3)=CC[C@@H]12` [abiraterone] here?
A: 40%

Q: And the “patients with PSA level decreased by more than 50%” value (PSA level; patients after ketoconazole therapy)?
A: 33%

Q: And the “patients with PSA level decreased by more than 50%” value (PSA level; patients who had not previously received chemotherapy)?
A: 85%
